Patent US20100040552A1, “METHODS TO EVALUATE GLUCOCORTICOID RECEPTOR AGONISTS AND ANTAGONISTS FOR EFFECTS ON NEURON-LIKE CELLS” (ROSETTA INPHARMATICS LLC, priority 2005, published 2010)

Assays:
[1] = system: A549 cells; assay: A549 cell molecular profiling experiment; format: cell-based; settings: 100 nM
[2] = system: CA77 cells; assay: CA77 cell assay, real-time RT-PCR (TaqMan); format: cell-based, rat; settings: CA77 cells
Method: Assay: CA77 cells were plated into 96 well tissue culture dishes at a density of 8×10^4 cells per well in 200 μl of PM and the cultures maintained in a humidified air atmosphere (7.5% CO2) at 37° C. This media was aspirated after 24 hours and replaced with 200 μl of GM and the cultures incubated as before, for an additional 48 hours, at which time the cultures were at approximately 90% confluency.
For the evaluation of agonist activity, the GM was aspirated, replaced with 200 μl of fresh GM containing concentrations of a drug ranging from 0.1 nM to 10,000 nM in a 10-fold dilution series. Control wells of 0 nM drug in GM and 0.1% DMSO in GM were included in the series for each drug. Each drug concentration and the two controls were evaluated on 4 wells. The cultures were maintained in a humidified air atmosphere (7.5% CO2) at 37° C. for 24 hours.
Control wells of 0 nM drug in GM containing 250 nM corticosterone and 0.1% DMSO in GM (without corticosterone) were included in the series for each drug. Each drug concentration and the two controls were evaluated on 4 wells. The cultures were maintained in a humidified air atmosphere (7.5% CO2) at 37° C. for 24 hours.
Lysis of Cells and Isolation of mRNA: Two methods were employed for the lysis of the cells and the isolation of mRNA at the end of the 24-hour incubation with the drugs.
One method was the mRNA Catcher™ Method (using Kit number 37001, sold by Invitrogen Corporation). The GM was aspirated from the cells, the cell monolayer was washed once with PBS (product number 10010, sold by Invitrogen Corporation), and then the cells were lysed in 30 μl of the kit lysis buffer containing 1% β-ME for 5 minutes at room temperature. The lysates were snap frozen in the 96-well plate by placing the plate on dry ice pellets, and the plate was then stored at −80° C.
The lysates were thawed at room temperature and then transferred into individual wells in the mRNA Catcher™ plate. The plate was covered and incubated for 90 minutes at room temperature for RNA hybridization. […]

C[C@@H]1C[C@H]2[C@@H]3CCC4=CC(=O)C=C[C@]4(C)[C@@]3(F)[C@@H](O)C[C@]2(C)[C@@]1(O)C(=O)CO [Dexamethasone, dexamethasone]
Up-regulated genes in category DMSO (<0%) ([1]; set of 1091 genes): 0
Up-regulated genes in category Full (≧90%) ([1]; set of 1091 genes): 1087
Up-regulated genes in category High (66.7-90%) ([1]; set of 1091 genes): 4
Up-regulated genes in category Low (0-33.3%) ([1]; set of 1091 genes): 0
Up-regulated genes in category Middle (33.3-66.7%) ([1]; set of 1091 genes): 0
Down-regulated genes in category DMSO (<0%) ([1]; set of 1249 genes): 0
Down-regulated genes in category Full (≧90%) ([1]; set of 1249 genes): 1237
Down-regulated genes in category High (66.7-90%) ([1]; set of 1249 genes): 12
Down-regulated genes in category Low (0-33.3%) ([1]; set of 1249 genes): 0
Down-regulated genes in category Middle (33.3-66.7%) ([1]; set of 1249 genes): 0
Sult1a1 up-regulation as detected by RT-PCR [2]: 158 fold
